Test results taken from PubChem BioAssay (NCI).
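Method: 48-hour compound exposure of cells in 96-well plates, five concentrations, linear interpolation of endpoints. The concentration for full growth arrest is given as TGI.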

Tests used:
Experiment in all cases: DTP human tumour cell line panel, 48 h
[1] = tested on: OVCAR-8 ovarian
[2] = tested on: NCI-H522 lung
[3] = tested on: HL-60(TB) leukemia
[4] = tested on: SK-OV-3 ovarian
[5] = tested on: UO-31 renal
[6] = tested on: RPMI-8226 leukemia
[7] = tested on: OVCAR-5 ovarian
[8] = tested on: COLO 205 colon
[9] = tested on: SN12C renal
[10] = tested on: PC-3 prostate
[11] = tested on: ACHN renal
[12] = tested on: SNB-19 CNS
[13] = tested on: MDA-MB-435
[14] = tested on: HOP-92 NSCLC
[15] = tested on: KM20L2 colon
[16] = tested on: HCT-116 colon
[17] = tested on: DMS 273 small cell lung
[18] = tested on: NCI/ADR-RES ovarian
[19] = tested on: RXF 393 renal
[20] = tested on: LOX IMVI melanoma
[21] = tested on: SW-620 colon
[22] = tested on: SK-MEL-28 melanoma
[23] = tested on: DMS 114 small cell lung
[24] = tested on: IGROV1 ovarian
[25] = tested on: T-47D breast
[26] = tested on: NCI-H23 lung
[27] = tested on: MDA-N
[28] = tested on: HOP-62 NSCLC
[29] = tested on: A549 NSCLC
[30] = tested on: HS 578T breast
[31] = tested on: DLD-1 colon
[32] = tested on: SF-268 CNS
[33] = tested on: MDA-MB-231 breast
[34] = tested on: HT29 colon
[35] = tested on: CCRF-CEM leukemia
[36] = tested on: SF-295 CNS
[37] = tested on: TK-10 renal
[38] = tested on: NCI-H226 lung
[39] = tested on: UACC-257 melanoma
[40] = tested on: M19-MEL melanoma
[41] = tested on: U251 CNS
[42] = tested on: BT-549 breast
[43] = tested on: SR leukemia
[44] = tested on: MCF7 breast
[45] = tested on: OVCAR-4 ovarian
[46] = tested on: A498 renal
[47] = tested on: EKVX NSCLC
[48] = tested on: SNB-78 CNS
[49] = tested on: 786-0 renal
[50] = tested on: SF-539 CNS
[51] = tested on: NCI-H460 lung
[52] = tested on: DU-145 prostate
[53] = tested on: HOP-18 NSCLC
[54] = tested on: MALME-3M melanoma
[55] = tested on: OVCAR-3 ovarian
[56] = tested on: SK-MEL-5 melanoma
[57] = tested on: LXFL 529 NSCLC
[58] = tested on: KM12 colon
[59] = tested on: HCC-2998 colon
[60] = tested on: K-562 leukemia
[61] = tested on: XF 498 CNS
[62] = tested on: HCT-15 colon
[63] = tested on: SK-MEL-2 melanoma
[64] = tested on: M14 melanoma
[65] = tested on: CAKI-1 renal
[66] = tested on: SNB-75 CNS
[67] = tested on: UACC-62 melanoma
[68] = tested on: RXF-631 renal
[69] = tested on: MOLT-4 leukemia

SMILES: Cn1c2ccccc2c2ccc3c(c21)C(=O)C=CC3=O
- TGI [1]: 31.1 µM
- TGI [2]: 6.36 µM
- TGI [3]: 11.8 µM
- TGI [4]: 33.2 µM
- TGI [5]: 13.7 µM
- TGI [6]: 14.6 µM
- TGI [7]: 28.3 µM
- TGI [8]: 6.9 µM
- TGI [9]: 26.5 µM
- TGI [10]: 12.2 µM
- TGI [11]: 8.33 µM
- TGI [12]: 46.4 µM
- TGI [13]: 10.9 µM
- TGI [14]: 4.66 µM
- TGI [15]: 33.9 µM
- TGI [16]: 10.9 µM
- TGI [17]: 25.8 µM
- TGI [18]: 14.4 µM
- TGI [19]: 5.96 µM
- TGI [20]: 10.5 µM
- TGI [21]: 4.46 µM
- TGI [22]: 25.7 µM
- TGI [23]: 21.5 µM
- TGI [24]: 29.9 µM
- TGI [25]: 10.7 µM
- TGI [26]: 27.3 µM
- TGI [27]: 19.3 µM
- TGI [28]: 48 µM
- TGI [29]: 61 µM
- TGI [30]: 58.5 µM
- TGI [31]: 6.02 µM
- TGI [32]: 30.5 µM
- TGI [33]: 18.7 µM
- TGI [34]: 26 µM
- TGI [35]: 14.5 µM
- TGI [36]: 42.1 µM
- TGI [37]: 12.2 µM
- TGI [38]: 51 µM
- TGI [39]: 23.1 µM
- TGI [40]: 24.5 µM
- TGI [41]: 25.1 µM
- TGI [42]: 18.9 µM
- TGI [43]: 15.9 µM
- TGI [44]: 8.96 µM
- TGI [45]: 4.08 µM
- TGI [46]: > 59.4 µM
- TGI [47]: 38.6 µM
- TGI [48]: 48.4 µM
- TGI [49]: 9.2 µM
- TGI [50]: 26.3 µM
- TGI [51]: 46.4 µM
- TGI [52]: 29.5 µM
- TGI [53]: 5.58 µM
- TGI [54]: 12.2 µM
- TGI [55]: 20.9 µM
- TGI [56]: 31 µM
- TGI [57]: 8.26 µM
- TGI [58]: 60.7 µM
- TGI [59]: 15.1 µM
- TGI [60]: > 45.1 µM
- TGI [61]: 4.88 µM
- TGI [62]: 12.1 µM
- TGI [63]: 29.9 µM
- TGI [64]: 22.1 µM
- TGI [65]: 11.8 µM
- TGI [66]: 32.5 µM
- TGI [67]: 26.7 µM

SMILES: C/C(CC(=O)Nc1ccc(C)c(C)c1)=N\NC(N)=S
- TGI [1]: > 100 µM
- TGI [2]: > 100 µM
- TGI [3]: > 100 µM
- TGI [4]: > 100 µM
- TGI [5]: > 100 µM
- TGI [6]: > 100 µM
- TGI [7]: > 100 µM
- TGI [8]: > 100 µM
- TGI [11]: > 100 µM
- TGI [14]: > 100 µM
- TGI [15]: > 100 µM
- TGI [16]: > 100 µM
- TGI [17]: > 100 µM
- TGI [68]: > 100 µM
- TGI [19]: > 100 µM
- TGI [20]: > 100 µM
- TGI [21]: > 100 µM
- TGI [22]: > 100 µM
- TGI [23]: > 100 µM
- TGI [24]: > 100 µM
- TGI [26]: > 100 µM
- TGI [28]: > 100 µM
- TGI [29]: > 100 µM
- TGI [69]: > 100 µM
- TGI [31]: > 100 µM
- TGI [32]: > 100 µM
- TGI [34]: > 100 µM
- TGI [35]: > 100 µM
- TGI [36]: > 100 µM
- TGI [37]: > 100 µM
- TGI [38]: > 100 µM
- TGI [39]: > 100 µM
- TGI [41]: > 100 µM
- TGI [47]: > 100 µM
- TGI [48]: > 100 µM
- TGI [49]: > 100 µM
- TGI [50]: > 100 µM
- TGI [51]: > 100 µM
- TGI [54]: > 100 µM
- TGI [55]: > 100 µM
- TGI [56]: > 100 µM
- TGI [57]: > 100 µM
- TGI [58]: > 100 µM
- TGI [59]: > 100 µM
- TGI [60]: > 100 µM
- TGI [63]: > 100 µM
- TGI [64]: > 100 µM
- TGI [66]: > 100 µM
- TGI [67]: > 100 µM

SMILES: O=C(NC1C2CC3CC(C2)CC1C3)c1ccncn1 (stereo unspecified)
- TGI [1]: > 100 µM
- TGI [2]: > 100 µM
- TGI [3]: > 100 µM
- TGI [5]: > 100 µM
- TGI [7]: > 100 µM
- TGI [8]: > 100 µM
- TGI [9]: > 100 µM
- TGI [11]: > 100 µM
- TGI [12]: > 100 µM
- TGI [14]: > 100 µM
- TGI [15]: > 100 µM
- TGI [16]: > 100 µM
- TGI [17]: > 100 µM
- TGI [68]: > 100 µM
- TGI [21]: > 100 µM
- TGI [22]: > 100 µM
- TGI [23]: > 100 µM
- TGI [24]: > 100 µM
- TGI [26]: > 100 µM
- TGI [28]: > 100 µM
- TGI [29]: > 100 µM
- TGI [31]: > 100 µM
- TGI [32]: > 100 µM
- TGI [34]: > 100 µM
- TGI [35]: > 100 µM
- TGI [36]: > 100 µM
- TGI [38]: > 100 µM
- TGI [39]: > 100 µM
- TGI [40]: > 100 µM
- TGI [41]: > 100 µM
- TGI [45]: > 100 µM
- TGI [46]: > 100 µM
- TGI [47]: > 100 µM
- TGI [48]: > 100 µM
- TGI [49]: > 100 µM
- TGI [50]: > 100 µM
- TGI [51]: > 100 µM
- TGI [54]: > 100 µM
- TGI [55]: > 100 µM
- TGI [56]: > 100 µM
- TGI [57]: > 100 µM
- TGI [58]: > 100 µM
- TGI [59]: > 100 µM
- TGI [60]: > 100 µM
- TGI [62]: > 100 µM
- TGI [63]: > 100 µM
- TGI [64]: > 100 µM
- TGI [65]: > 100 µM
- TGI [66]: > 100 µM
- TGI [67]: > 100 µM
